Experimental data from patent US10577322B2, “5-methoxytryptophan and its derivatives and uses thereof” (National Health Research Institutes, priority 2015, dated 2020).

Assays:
IL-6 = assay: LPS-induced IL-6 level in RAW264.7 culture supernatants (ELISA); assay type: cell-based, mouse; settings: RAW264.7 cells; for LPS-induced IL-6 protein expression: LPS 8 h
Description: (§1) Mouse RAW264.7 macrophages were from the American Type Culture Collection and cultured in DMEM containing 10% FBS. […] The duration of LPS (100 ng/ml) treatment varied depending on the experiment.
Moreover, RAW264.7 cells and IL-6 promoter-luciferase plasmid transfected RAW264.7 cells were pretreated with different concentrations of 5-MTP for 30 min, followed by LPS stimulation for 8 h. IL-6 promoter activity was measured by luciferase assay. IL-6 level in culture supernatants was measured by ELISA.
Furthermore, RAW264.7 cells were treated with different concentrations of 5-MTP or 5-MTPE for 24 h. Cell viability was determined by MTT assay. In another experiment, after pretreating RAW264.7 cells with different concentrations of 5-MTP or 5-MTPE for 30 min, cells were stimulated with LPS for 24 h. IL-6 level in culture supernatants was measured by ELISA.
(§2) Herein, after pretreating RAW264.7 cells with different concentrations of 5-MTP, 5-MTPE, COX-2 inhibitors (NSC398 or SC560) and NF-κB inhibitor JSH-23 for 30 min, cells were stimulated with LPS. In addition, RAW264.7 cells were also transfected with COX-2 promoter-luciferase plasmid. After 24 h transfection, the cells were incubated with LPS for 8 h. Luciferase activity as measured.

COX-2 [1] = assay: PMA-induced COX-2 expression in A549 cells (immunoblot); assay type: cell-based; settings: for PMA-induced COX-2 protein expression: 30 min pretreatment, PMA 8 h
Description: (§3) Cellular protein were resolved by 5% to 20% SDS-PAGE and transferred to nitrocellulose membranes and blotted with specific antibodies as previously described (Lee, G. L., et al.).
After pretreating A549 cells with different concentrations of 5-MTP, 5-MTPE and NACT-5-MTP for 30 min, cells were stimulated with PMA for 8 h. Cell lysates were immunoblotted with antibodies for COX-2 or β-actin.

COX-2 [2] = assay: LPS-induced COX-2 protein expression in RAW264.7 cells (immunoblot); assay type: cell-based, mouse; settings: LPS 8 h
Description: as §1, §3
(§4) After pretreating mouse macrophage RAW264.7 cells with different concentrations of 5-MTP for 30 min, cells were stimulated with LPS for 8 h. Cell lysates were immunoblotted with antibodies for COX-2 or β-actin. In addition, RAW264.7 cells were transfected with COX-2 promoter-luciferase plasmid. After 24 h transfection, the cells were incubated with LPS for 8 h. Luciferase activity was measured.

T47D breast cancer cells = assay: Transwell cell migration assay, T47D; assay type: cell-based; settings: 30 min pretreatment, PMA 4 h or 24 h
Description: (§5) Briefly, cells (10^4/well) were seeded on the upper chamber (6.5-mm insert, 8-μm polycarbonate membrane; Corning Inc.), which was placed in each well of a 24-well plate. The lower chamber was filled with 700 μL DMEM supplemented with 10% FBS. For assessment of in vitro invasion, cells were seeded onto the upper chamber insert coated with Matrigel (BD Biosciences) under the same conditions as the transwell migration assays. At the indicated time, nonmigrated cells that remained at the top surface of the insert were removed with a cotton swab. Cells that migrated to the lower membrane surface and cells that invaded through the matrigel gel to the underside of the membrane were fixed, stained with 0.1% crystal violet for 20 min, and counted under light microscopy. All of the assays were done in triplicate with excellent reproducibility.
(§6) Lung cancer A549 and breast cancers BT474 and T47D cells were pretreated with different concentrations of 5-MTP or 5-MTPE for 30 min, then stimulated with PMA for 4 h or 24 h. Cell migration was measured by the transwell migration assay.

A549 lung cancer cells = assay: Transwell cell migration assay, A549; assay type: cell-based; settings: 30 min pretreatment, PMA 4 h or 24 h
Description: as §5, §6

[3] = test system: BT474 breast cancer cells; assay: Transwell cell migration assay, BT474; assay type: cell-based; settings: 30 min pretreatment, PMA 4 h or 24 h
Description: as §5, §6

COX-2 promoter = assay: COX-2 promoter-luciferase assay in RAW264.7 cells; assay type: cell-based, mouse; settings: LPS 8 h
Description: RAW264.7 macrophages were cotransfected with COX-2 promoter-luciferase, IL-6 promoter-luciferase constructs as previously described (Lee, G. L., et al.) or p5xNF-κB-luciferase (Stratagene) and pcDNA3.1-β-galactosidase plasmids using FuGENE 6 (Roche). After overnight transfection, the cells were incubated with or without LPS in the presence or absence of 5-MTP for 8 h. After treatment, cells were lysed, and luciferase activity was measured using an assay kit (Promega). β-galactosidase activity was used to normalize the data.
as §4, with “measured. The experiments were repeated 3 times with similar results. The results shown in FIGS. 3A-3B confirmed that 5-MTP blocked LPS-induced COX-2 protein expression and promoter activity in a concentration-dependent manner in RAW264.7 cells.” for “measured.”
as §2

| Molecule | LPS-induced IL-6 protein expression (IL-6) | PMA-induced COX-2 protein expression (COX-2 [1]) | LPS-induced COX-2 protein expression (COX-2 [2]) | PMA-induced T47D cell migration (T47D breast cancer cells) | COX-2 suppressive activity compared with 5-MTP (COX-2 [1]; PMA) | PMA-induced A549 cell migration (A549 lung cancer cells) | PMA-induced BT474 cell migration [3] | LPS-induced IL-6 level in culture supernatants (IL-6; 30 min pretreatment, LPS 24 h) | LPS-induced COX-2 promoter activity (luciferase) (COX-2 promoter) |
| --- | --- | --- | --- | --- | --- | --- | --- | --- | --- |
| COc1ccc2[nH]cc(CCN)c2c1 [5-methoxytryptamine, reference compound] | neither serotonin nor 5-methoxytryptamine or tryptophan exerted an effect | neither serotonin nor 5-methoxytryptamine or tryptophan exerted an effect | neither serotonin nor 5-methoxytryptamine or tryptophan exerted an effect | – | – | – | – | – | – |
| N-acetyl-5-MTP [NACT-5MTP] | – | dose-dependently blocked | – | abrogated | potent than that of 5-MTP | abrogated | abrogated | – | – |
| NCCc1c[nH]c2ccc(O)cc12 [Serotonin, reference compound] | neither serotonin nor 5-methoxytryptamine or tryptophan exerted an effect | neither serotonin nor 5-methoxytryptamine or tryptophan exerted an effect | neither serotonin nor 5-methoxytryptamine or tryptophan exerted an effect | – | – | – | – | – | – |
| N[C@@H](Cc1c[nH]c2ccccc12)C(=O)O [Tryptophan] | neither serotonin nor 5-methoxytryptamine or tryptophan exerted an effect | neither serotonin nor 5-methoxytryptamine or tryptophan exerted an effect | neither serotonin nor 5-methoxytryptamine or tryptophan exerted an effect | – | – | – | – | – | – |
| Cc1ccc(NCCCc2ccccc2)c(N)c1 [JSH-23, reference compound] | – | – | – | – | – | – | – | dose-dependently blocked | dose-dependently blocked |
